{"source": "patent US20110311601A1", "about": "“ANTIMICROBIAL MEDICAL DEVICES” (priority 2010, published 2011)", "assay_in_all_cases": "micro-dilution assay (MBC, LD90)", "format_in_all_cases": "cell-based", "key": {"[1]": {"system": "Enterobacter cloacae ATCC 13047", "outline": "(§1)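 MBC (99.9% killing) and LD90 (90% killing) come from CFU counts normalised to an untreated growth control. Organisms grown in BHI, washed into 10 mM sodium phosphate buffer pH 7.2 at 10^4 cells/ml, then incubated 2 h with hβD2 (final 0.0125–100 mg/l) before plating.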"}, "[2]": {"system": "Pseudomonas aeruginosa ATCC 39324", "outline": "as §1"}, "[3]": {"system": "Proteus vulgaris Mero 103/067 (wild-type)", "outline": "as §1"}, "[4]": {"system": "Serratia marcescens Mero 103/013 (wild-type)", "outline": "as §1"}, "[5]": {"system": "Corynebacterium pseudodiphtheriae RV A1/95", "outline": "as §1"}, "[6]": {"system": "Fusobacterium nucleatum ATCC 10953", "outline": "as §1"}, "[7]": {"system": "Enterobacter cloacae Va 11263/03 (wild-type)", "outline": "as §1"}, "[8]": {"system": "Saccharomyces cerevisiae ATCC 9763", "outline": "as §1"}, "[9]": {"system": "Proteus mirabilis UR 1354/03 (wild-type)", "outline": "as §1"}, "[10]": {"system": "Citrobacter freundii BK 2122/00 (wild-type)", "outline": "as §1"}, "[11]": {"system": "Eikenella corrodens (wild-type)", "outline": "as §1"}, "[12]": {"system": "Acinetobacter calcoaceticus ATCC 23055", "outline": "as §1"}, "[13]": {"system": "Proteus vulgaris UR 1464/03 (wild-type)", "outline": "as §1"}, "[14]": {"system": "Stenotrophomonas maltophilia ATCC 10257", "outline": "as §1"}, "[15]": {"system": "Candida albicans C.a 14 (wild-type)", "outline": "as §1"}, "[16]": {"system": "Pseudomonas fluorescens NCTC 10038", "outline": "as §1"}, "[17]": {"system": "Burkholderia cepacia ATCC 25416", "outline": "as §1"}, "[18]": {"system": "Aeeromonas hydrophila ATCC 7966", "outline": "as §1"}, "[19]": {"system": "Pseudomonas aeruginosa CF 453 Va mr (wild-type)", "outline": "as §1"}, "[20]": {"system": "Streptococcus pneumoniae DSM 11865 (Penr)", "outline": "as §1"}, "[21]": {"system": "Enterococcus faecium (VRE) W 356 (wild-type)", "outline": "as §1"}, "[22]": {"system": "Enterobacter cloacae Va 12270/03 (wild-type)", "outline": "as §1"}, "[23]": {"system": "Pseudomonas aeruginosa ATCC 11440", "outline": "as §1"}, "[24]": {"system": "Staphylococcus aureus (MRSA 358) (wild-type)", "outline": "as §1"}, "[25]": {"system": "Acinetobacter johnsonii ATCC 17909", "outline": "as §1"}, "[26]": {"system": "Klebsiella pneumoniae (ESBL) CF 2 (wild-type)", "outline": "as §1"}}, "note": "Where no end group is shown, it is not given here.", "data": [{"substance": "human β-defensin-2 (GIGDPVTCLKSGAICHPVFCPRRYKQIGTCGLPGTKCCKKP; ends and bridges not checked; cysteine pairing not given here) [hβD2, recombinant hβD2]", "values": [{"measurement": "LD 90 = μg/ml 90% killing", "setting": "[1]", "result": 25, "unit": "µg/mL"}, {"measurement": "MBC = μg/ml 99.9% killing", "setting": "[1]", "result": 100, "unit": "µg/mL"}, {"measurement": "LD 90 = μg/ml 90% killing", "setting": "[2]", "result": 12.5, "unit": "µg/mL"}, {"measurement": "MBC = μg/ml 99.9% killing", "setting": "[2]", "result": 25, "unit": "µg/mL"}, {"measurement": "LD 90 = μg/ml 90% killing", "setting": "[3]", "result": 100, "unit": "µg/mL"}, {"measurement": "MBC = μg/ml 99.9% killing", "setting": "[3]", "result": ">100", "unit": "µg/mL"}, {"measurement": "LD 90 = μg/ml 90% killing", "setting": "[4]", "result": 100, "unit": "µg/mL"}, {"measurement": "MBC = μg/ml 99.9% killing", "setting": "[4]", "result": ">100", "unit": "µg/mL"}, {"measurement": "LD 90 = μg/ml 90% killing", "setting": "[5]", "result": 12.5, "unit": "µg/mL"}, {"measurement": "MBC = μg/ml 99.9% killing", "setting": "[5]", "result": 12.5, "unit": "µg/mL"}, {"measurement": "LD 90 = μg/ml 90% killing", "setting": "[6]", "result": 3.125, "unit": "µg/mL"}, {"measurement": "MBC = μg/ml 99.9% killing", "setting": "[6]", "result": 3.125, "unit": "µg/mL"}, {"measurement": "LD 90 = μg/ml 90% killing", "setting": "[7]", "result": 12.5, "unit": "µg/mL"}, {"measurement": "MBC = μg/ml 99.9% killing", "setting": "[7]", "result": 50, "unit": "µg/mL"}, {"measurement": "LD 90 = μg/ml 90% killing", "setting": "[8]", "result": 3.125, "unit": "µg/mL"}, {"measurement": "MBC = μg/ml 99.9% killing", "setting": "[8]", "result": 25, "unit": "µg/mL"}, {"measurement": "LD 90 = μg/ml 90% killing", "setting": "[9]", "result": 100, "unit": "µg/mL"}, {"measurement": "MBC = μg/ml 99.9% killing", "setting": "[9]", "result": ">100", "unit": "µg/mL"}, {"measurement": "LD 90 = μg/ml 90% killing", "setting": "[10]", "result": 6.25, "unit": "µg/mL"}, {"measurement": "MBC = μg/ml 99.9% killing", "setting": "[10]", "result": 25, "unit": "µg/mL"}, {"measurement": "LD 90 = μg/ml 90% killing", "setting": "[11]", "result": 50, "unit": "µg/mL"}, {"measurement": "MBC = μg/ml 99.9% killing", "setting": "[11]", "result": 50, "unit": "µg/mL"}, {"measurement": "LD 90 = μg/ml 90% killing", "setting": "[12]", "result": 0.39, "unit": "µg/mL"}, {"measurement": "MBC = μg/ml 99.9% killing", "setting": "[12]", "result": 0.78, "unit": "µg/mL"}, {"measurement": "LD 90 = μg/ml 90% killing", "setting": "[13]", "result": 3.125, "unit": "µg/mL"}, {"measurement": "MBC = μg/ml 99.9% killing", "setting": "[13]", "result": 12.5, "unit": "µg/mL"}, {"measurement": "LD 90 = μg/ml 90% killing", "setting": "[14]", "result": 6.25, "unit": "µg/mL"}, {"measurement": "MBC = μg/ml 99.9% killing", "setting": "[14]", "result": 25, "unit": "µg/mL"}, {"measurement": "LD 90 = μg/ml 90% killing", "setting": "[15]", "result": 12.5, "unit": "µg/mL"}, {"measurement": "MBC = μg/ml 99.9% killing", "setting": "[15]", "result": 25, "unit": "µg/mL"}, {"measurement": "LD 90 = μg/ml 90% killing", "setting": "[16]", "result": 6.25, "unit": "µg/mL"}, {"measurement": "MBC = μg/ml 99.9% killing", "setting": "[16]", "result": 25, "unit": "µg/mL"}, {"measurement": "LD 90 = μg/ml 90% killing", "setting": "[17]", "result": 100, "unit": "µg/mL"}, {"measurement": "MBC = μg/ml 99.9% killing", "setting": "[17]", "result": ">100", "unit": "µg/mL"}, {"measurement": "LD 90 = μg/ml 90% killing", "setting": "[18]", "result": 100, "unit": "µg/mL"}, {"measurement": "MBC = μg/ml 99.9% killing", "setting": "[18]", "result": ">100", "unit": "µg/mL"}, {"measurement": "LD 90 = μg/ml 90% killing", "setting": "[19]", "result": 12.5, "unit": "µg/mL"}, {"measurement": "MBC = μg/ml 99.9% killing", "setting": "[19]", "result": 25, "unit": "µg/mL"}, {"measurement": "LD 90 = μg/ml 90% killing", "setting": "[20]", "result": 50, "unit": "µg/mL"}, {"measurement": "MBC = μg/ml 99.9% killing", "setting": "[20]", "result": 100, "unit": "µg/mL"}, {"measurement": "LD 90 = μg/ml 90% killing", "setting": "[21]", "result": 50, "unit": "µg/mL"}, {"measurement": "MBC = μg/ml 99.9% killing", "setting": "[21]", "result": 100, "unit": "µg/mL"}, {"measurement": "LD 90 = μg/ml 90% killing", "setting": "[22]", "result": 6.25, "unit": "µg/mL"}, {"measurement": "MBC = μg/ml 99.9% killing", "setting": "[22]", "result": 12.5, "unit": "µg/mL"}, {"measurement": "LD 90 = μg/ml 90% killing", "setting": "[23]", "result": 12.5, "unit": "µg/mL"}, {"measurement": "MBC = μg/ml 99.9% killing", "setting": "[23]", "result": 12.5, "unit": "µg/mL"}, {"measurement": "LD 90 = μg/ml 90% killing", "setting": "[24]", "result": 100, "unit": "µg/mL"}, {"measurement": "MBC = μg/ml 99.9% killing", "setting": "[24]", "result": ">100", "unit": "µg/mL"}, {"measurement": "LD 90 = μg/ml 90% killing", "setting": "[25]", "result": 0.39, "unit": "µg/mL"}, {"measurement": "MBC = μg/ml 99.9% killing", "setting": "[25]", "result": 1.56, "unit": "µg/mL"}, {"measurement": "LD 90 = μg/ml 90% killing", "setting": "[26]", "result": 6.25, "unit": "µg/mL"}, {"measurement": "MBC = μg/ml 99.9% killing", "setting": "[26]", "result": 25, "unit": "µg/mL"}]}]}
